The values that follow come from ChEMBL document CHEMBL3217555, “Potent and selective inhibitors of human peptidylglycine -amidating monooxygenase” (Medchemcomm, 2011).

Where a SMILES comes first, the peptide text is derived from it.

For one data set, the species on record is Xenopus laevis. Nature of the data set: (§1) Competitive binding affinity to Xenopus laevis PAM using (R)-Tyr-(S)-ValGly as substrate after 1 hr by HPLC analysis.
Data set [1] in a line: as §1.
The target in data set [2] is T1, Peptidyl-glycine alpha-amidating monooxygenase (Homo sapiens, UniProt P19021).
T1 sequence (P19021 whole entry): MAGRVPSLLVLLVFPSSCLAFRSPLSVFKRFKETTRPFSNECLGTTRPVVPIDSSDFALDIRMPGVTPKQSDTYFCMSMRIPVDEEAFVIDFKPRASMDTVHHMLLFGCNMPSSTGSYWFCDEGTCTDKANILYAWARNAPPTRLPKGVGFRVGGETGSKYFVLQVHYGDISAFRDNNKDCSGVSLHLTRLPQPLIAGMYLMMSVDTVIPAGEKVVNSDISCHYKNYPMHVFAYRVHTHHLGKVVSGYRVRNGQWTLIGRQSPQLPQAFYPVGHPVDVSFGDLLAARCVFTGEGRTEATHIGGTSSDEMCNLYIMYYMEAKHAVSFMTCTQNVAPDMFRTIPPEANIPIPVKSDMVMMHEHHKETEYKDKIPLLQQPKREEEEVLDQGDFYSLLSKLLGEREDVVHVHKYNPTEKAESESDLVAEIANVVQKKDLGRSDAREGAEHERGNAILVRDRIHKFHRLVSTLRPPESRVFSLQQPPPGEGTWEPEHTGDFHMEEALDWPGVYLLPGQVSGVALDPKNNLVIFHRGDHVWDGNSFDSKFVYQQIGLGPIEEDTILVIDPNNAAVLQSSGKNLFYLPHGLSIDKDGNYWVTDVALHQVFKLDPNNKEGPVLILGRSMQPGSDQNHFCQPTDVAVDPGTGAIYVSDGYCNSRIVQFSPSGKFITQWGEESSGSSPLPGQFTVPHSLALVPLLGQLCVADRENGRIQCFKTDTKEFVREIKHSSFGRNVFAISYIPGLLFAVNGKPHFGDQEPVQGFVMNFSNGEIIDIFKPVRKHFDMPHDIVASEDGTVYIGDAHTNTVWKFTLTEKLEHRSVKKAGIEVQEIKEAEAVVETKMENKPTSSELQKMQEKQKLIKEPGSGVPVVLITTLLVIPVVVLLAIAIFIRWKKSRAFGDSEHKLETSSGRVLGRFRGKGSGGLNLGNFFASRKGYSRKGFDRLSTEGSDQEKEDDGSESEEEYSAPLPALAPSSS
Nature of the data set: (§2) Competitive binding affinity to PAM extracted from human H889 cells using (R)-Tyr-(S)-ValGly as substrate after 2 hrs by HPLC analysis.

Data set [3] has as its target T1, Peptidyl-glycine alpha-amidating monooxygenase. Put plainly: Competitive binding affinity to PAM secreted from human DMS53 cells using (R)-Tyr-(S)-ValGly as substrate after 2 hrs by HPLC analysis. On the set-up: species or system DMS-53.
Data set [4] has the same target. Nature of the data set: Competitive binding affinity to PAM extracted from human DMS53 cells using (R)-Tyr-(S)-ValGly as substrate after 2 hrs by HPLC analysis. More on the design: species or system DMS-53.
Data set [5] has as its target T2, Peptidyl-glycine alpha-amidating monooxygenase (Homo sapiens) (UniProt P19021).
T2 sequence (whole entry): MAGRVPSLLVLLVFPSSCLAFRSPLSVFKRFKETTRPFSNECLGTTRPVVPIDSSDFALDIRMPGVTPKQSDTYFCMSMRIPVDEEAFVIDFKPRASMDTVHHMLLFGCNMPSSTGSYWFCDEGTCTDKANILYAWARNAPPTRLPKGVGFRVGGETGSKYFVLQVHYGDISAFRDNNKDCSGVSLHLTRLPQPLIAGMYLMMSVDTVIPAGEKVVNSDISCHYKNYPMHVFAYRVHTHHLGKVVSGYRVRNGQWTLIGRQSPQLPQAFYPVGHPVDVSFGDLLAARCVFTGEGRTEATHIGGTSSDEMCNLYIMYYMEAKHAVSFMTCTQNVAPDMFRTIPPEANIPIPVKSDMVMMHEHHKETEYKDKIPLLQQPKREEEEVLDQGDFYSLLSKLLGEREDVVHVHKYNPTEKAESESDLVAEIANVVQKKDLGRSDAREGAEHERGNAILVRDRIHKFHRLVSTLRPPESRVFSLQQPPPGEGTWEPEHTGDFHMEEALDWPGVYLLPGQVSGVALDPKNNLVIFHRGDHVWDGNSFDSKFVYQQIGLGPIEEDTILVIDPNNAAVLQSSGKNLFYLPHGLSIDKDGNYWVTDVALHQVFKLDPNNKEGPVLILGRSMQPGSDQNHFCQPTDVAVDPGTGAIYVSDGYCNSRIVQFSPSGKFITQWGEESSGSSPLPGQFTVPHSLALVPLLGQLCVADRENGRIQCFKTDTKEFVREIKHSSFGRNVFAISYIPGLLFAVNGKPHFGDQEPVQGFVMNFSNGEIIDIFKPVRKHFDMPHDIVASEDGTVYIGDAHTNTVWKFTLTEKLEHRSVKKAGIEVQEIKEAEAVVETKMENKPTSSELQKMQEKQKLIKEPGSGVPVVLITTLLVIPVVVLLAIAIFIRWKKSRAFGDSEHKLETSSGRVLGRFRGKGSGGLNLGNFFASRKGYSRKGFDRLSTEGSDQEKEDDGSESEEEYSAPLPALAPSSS
Nature of the data set: Potency index, ratio of Procalcitonin Km(app) to compound IC50 for PAM extracted from human H889 cells. The format is cell-based.

In data set [6] the target is T1, Peptidyl-glycine alpha-amidating monooxygenase. Nature of the data set: Competitive binding affinity to PAM extracted from human PC3 cells using (R)-Tyr-(S)-ValGly as substrate after 2 hrs by HPLC analysis. More on the design: species or system PC-3.
Data set [7] has the same target. Put plainly: Competitive binding affinity to PAM secreted from human SW1783 cells using (R)-Tyr-(S)-ValGly as substrate after 2 hrs by HPLC analysis.
The target of data set [8] is T2, Peptidyl-glycine alpha-amidating monooxygenase (Homo sapiens). Nature of the data set: Potency index, ratio of Procalcitonin Km(app) to compound IC50 for PAM extracted from human DMS53 cells. To be noted: DMS-53. The format is cell-based.
The next data set has as its system H889. Nature of the data set: Selectivity ratio of IC50 for Xenopus laevis PAM to IC50 for PAM extracted from human H889 cells. Format: cell-based.
Data set [9] concerns the target T1, Peptidyl-glycine alpha-amidating monooxygenase. Nature of the data set: Competitive inhibition of PAM secreted from human PC3 cells by Dixon plot analysis. Format: cell-based, PC-3.
Substrate in data set [10]: O=C(O)CNC(=O)Cc1ccccc1
The data set is described as §2.

Substrate in data set [11]: CC(=O)N[C@@H](Cc1ccccc1)C(=O)NCC(=O)O
The data set is described as §2.

For data set [12], the target named is Peptidyl-glycine alpha-amidating monooxygenase (Homo sapiens) (UniProt P19021). Put plainly: Competitive binding affinity to PAM extracted from human H889 cells using (R)-Tyr-(S)-ValGly as substrate after 2 hrs by HPLC analysis.

Take `CC(=O)N[C@@H](Cc1ccccc1)C(=O)NCC(=O)O` (Ac-Phe-Gly-OH): the Km in the data set listed under Xenopus laevis came to 170 µM.
In data set [1], `CCCCCCCCCC(=O)SCC(=O)O` gave an IC50 of 9 µM.
Same read-out and setting: next, `CC(=O)N[C@@H](Cc1ccccc1)C(=O)OCC(=O)O`: over 2000 µM.
Consider `O=C(O)CSC(=O)Cc1ccccc1`, for which the IC50 in data set [2] stood at 45 µM; in data set [1], 20 µM.
For the molecule `CC(=O)N[C@@H](Cc1ccccc1)C(=O)SCC(=O)O`, the IC50 stood at 45 µM in [2] and 25 µM in [1].
As to `CCCCCCCC(=O)OCC(=O)O`, the IC50 in [1] was determined as 250 µM.
As to `CCCCCCCCCC(=O)NCC(=O)O`, the IC50 in [3] is 110 µM; in data set [4], 30 µM. For the same molecule, the Km in the data set listed under Xenopus laevis amounted to 440 µM.
With `O=C(O)CNC(=O)Cc1ccccc1`, the Km in the data set filed under Xenopus laevis was found to be 440 µM.
`CCCCCCCCCCCCCC(=O)OCC(=O)O` displayed an IC50 in data set [1] of 30 µM.
In [1], `CCCCCC(=O)OCC(=O)O` registered a half-inhibitory concentration (IC50) of 780 µM.
With `CCCCCCCCCC(=O)OCC(=O)O`, the Ratio in [5] was 6000; in data set [8] it was 5000. For the same molecule, the IC50 in data set [6] amounted to 0.12 µM; in [7], 30 µM; in [3] it was 30 µM; in data set [4], 0.04 µM; in data set [2], 0.05 µM; in data set [1], 40 µM. For the same molecule, the Ratio IC50 in the data set on H889 worked out at 800.
On to `CSCC[C@H](NC(C)=O)C(=O)SCC(=O)O`, for which, in data set [1], the IC50 was determined as 50 µM.
Consider `O=C(O)CSC(=O)c1ccccc1`, for which, in data set [1], the IC50 was found to be 150 µM.
Molecule `O=C(O)C/C=C/c1ccccc1` came in with an inhibitory constant (Ki) in data set [9] of 0.096 µM.
Regarding `CCCCCCCCCCCC(=O)OCC(=O)O`, the results for the IC50 in [2] and in [1] were 0.06 µM and 35 µM, respectively.
For `CC(=O)N[C@@H](CC(C)C)C(=O)SCC(=O)O`, the IC50 in data set [1] came to 260 µM.
Regarding `O=C(O)COC(=O)Cc1ccccc1`, in the data set on H889, the Ratio IC50 is over 250. Besides, the IC50 came to 2 µM in data set [2] and 510 µM in [1].
`O=C(O)COC(=O)c1ccccc1` came in with an IC50 in data set [1] of 250 µM.

B1: Peptidyl-glycine alpha-amidating monooxygenase (Homo sapiens), P19021 (protein)
chain: MAGRVPSLLVLLVFPSSCLAFRSPLSVFKRFKETTRPFSNECLGTTRPVVPIDSSDFALDIRMPGVTPKQSDTYFCMSMRIPVDEEAFVIDFKPRASMDTVHHMLLFGCNMPSSTGSYWFCDEGTCTDKANILYAWARNAPPTRLPKGVGFRVGGETGSKYFVLQVHYGDISAFRDNNKDCSGVSLHLTRLPQPLIAGMYLMMSVDTVIPAGEKVVNSDISCHYKNYPMHVFAYRVHTHHLGKVVSGYRVRNGQWTLIGRQSPQLPQAFYPVGHPVDVSFGDLLAARCVFTGEGRTEATHIGGTSSDEMCNLYIMYYMEAKHAVSFMTCTQNVAPDMFRTIPPEANIPIPVKSDMVMMHEHHKETEYKDKIPLLQQPKREEEEVLDQGDFYSLLSKLLGEREDVVHVHKYNPTEKAESESDLVAEIANVVQKKDLGRSDAREGAEHERGNAILVRDRIHKFHRLVSTLRPPESRVFSLQQPPPGEGTWEPEHTGDFHMEEALDWPGVYLLPGQVSGVALDPKNNLVIFHRGDHVWDGNSFDSKFVYQQIGLGPIEEDTILVIDPNNAAVLQSSGKNLFYLPHGLSIDKDGNYWVTDVALHQVFKLDPNNKEGPVLILGRSMQPGSDQNHFCQPTDVAVDPGTGAIYVSDGYCNSRIVQFSPSGKFITQWGEESSGSSPLPGQFTVPHSLALVPLLGQLCVADRENGRIQCFKTDTKEFVREIKHSSFGRNVFAISYIPGLLFAVNGKPHFGDQEPVQGFVMNFSNGEIIDIFKPVRKHFDMPHDIVASEDGTVYIGDAHTNTVWKFTLTEKLEHRSVKKAGIEVQEIKEAEAVVETKMENKPTSSELQKMQEKQKLIKEPGSGVPVVLITTLLVIPVVVLLAIAIFIRWKKSRAFGDSEHKLETSSGRVLGRFRGKGSGGLNLGNFFASRKGYSRKGFDRLSTEGSDQEKEDDGSESEEEYSAPLPALAPSSS
In the case of B1, the Km in [10] was 330 µM; in data set [11] it was 15 µM; in data set [12], 200 µM.
